Columns and labels:
Assay type in all cases: in vivo, NMRI-Mäuse
[1] = tested on: Maus-Peritonealmakrophagen; experiment: Activation of mononuclear phagocytes: oxidative metabolism (chemiluminescence) of peritoneal macrophages from treated mice; conditions: relative to maximal activation by compound of Beispiel 8 = 100 %; 100 mg/kg i.p.
Protocol: (§1) Hier wurde der Einfluß der nach Ausführungsbeispiel 8 erhaltenen Prüfsubstanz auf die Stimulation von Peritonealmakrophagen bei 6- 8 Wochen alten NMRI-Mäusen untersucht. Mäuseweibchen erhielten auf parenteralem oder oralem Wege die Prüfsubstanz in einer Dosis von 25 mg/kg, 50 mg/kg, 100 mg/kg und 200 mg/kg. Der Kontrollgruppe wurde gepufferte Kochsalzlösung verabreicht. Drei Tage nach den Injektionen wurden die Mäuse getötet, und es wurden die Peritonealmakrophagen der Tiere auf ihren Aktivierungszustand hin untersucht. Als Maß der Makrophagenaktivierung wurde zum einen die Sekretion der lyosomalen Enzyme (ß-Galactosidase, ß-Glucuronidase, N-Acetyl-ß-D-Glucosaminidase) bestimmt. Auf der anderen Seite konnte in vergleichbaren Makrophagenkulturen die Pinozytose durch die Aufnahme von kolloidalem Gold (^19^8Au) - wie sie dem Fachmann bekannt ist - untersucht werden. Die Höhe des oxidativen Stoffwechsels bei Makrophagen gilt als ein weiteres Maß für ihren Aktivierungszustand. Gemessen wird diese Aktivität unter Zuhilfenahme des Biolumaten durch Bestimmung der Chemolumineszenz.
(§2) Zu diesem Zweck wurden entweder in Petrischalen von 30 mm Durchmesser 3 x 10^6 Makrophagen mit 1 ml TC 199-Kulturmedium oder aber 10^6 Makrophagen mit 100 µl in Rundbogen-Polyäthylen-Röhrchen (zur Bestimmung der Chemolumineszenz) bei 5 % G02 und 37°C kultiviert.
(§3) Nach einstündiger Bebrütung wurden die Kulturen gewaschen, um schwimmende Zellen zu entfernen. Die Chemolumineszenz (Röhrchenkultur) wurde dann direkt bestimmt, während die Petrischalen erneut 24 Stunden bei 37°C bebrütet wurden und danach die Enzym- und Pinozytoseaktivität in den Kulturen bestimmt wurde. Es wurden die nachstehenden Ergebnisse erzielt.
Die parenterale sowie die orale Behandlung von NMRI-Mäusen mit der gemäß Beispiel 8 hergestellten Prüfsubstanz stimuliert die Makrophagenaktivität und hat damit eine immunitätstimulierende Wirkung. So wird der oxidative Stoffwechsel bei Makrophagen mit der Generierung von Sauerstoffradikalen und dem damit verbundenen meßbaren Licht deutlich erhöht. Bei Dosierungen von 25 mg/kg aufwärts kommt es zu einer dosisabhänigen Steigerung der Makrophagenaktivität sowohl bei parenteraler als auch oraler Applikation.
(§4) Wie im Experiment 2 beschrieben, wurden NMRI-Mäuse mit den erfindungsgemäßen Verbindungen behandelt.
(§5) Als Test zur Erfassung der Immunstimulation wurde die Funktion der Makrophagen (Chemolumineszenz und Enzymaktivität) überprüft.
(§6) Tabelle 8 zeigt die relative Wirksamkeit der Prüfsubstanzen bezogen auf die Verbindung aus Beispiel 8, deren maximale Aktivierung (Differenz zwischen Kontrolle und Stimulation) 100 % entspricht. Der Tabelle ist zu entnehmen, daß im Vergleich zu Makrophagen aus unbehandelten Tieren, diese Zellen auch durch alle Prüfsubstanzen in ihrer Chemolumineszenzreaktion stark stimuliert und in ihrem Gehalt an lysosomalen Enzymen deutlich erhöht waren.

[2] = tested on: Maus-Peritonealmakrophagen; experiment: Activation of mononuclear phagocytes: release of lysosomal hydrolases (exocytosis) by peritoneal macrophages from treated mice; conditions: lysosomal enzyme activity, relative to maximal activation by compound of Beispiel 8 = 100 %; 100 mg/kg i.p.
Protocol: as §1, §2, §3
Aus der Tabelle 3 ist zu entnehmen, daß Makrophagen von Kontrollmäusen nur geringe Mengen an lysosomalen Enzymen (ß-Glucuronidase, ß-Galactosidase, N-Acetyl-ß-D-Glucosaminidase) in den Kulturüberstand abgeben. Mononukleare Phagozyten von Mäusen, die parenteral oder oral mit der Prüfsubstanz 72 Stunden behandelt wurde, sezernieren die o.a. sauren Hydrolasen (ß-Glu, ß-Gal, N-Ac-Glu) deutlich mehr und weisen damit eine Dosiswirkungskurve auf, die bei allen gemessenen Enzymen eine Überlegenheit gegenüber den Kontrollen erkennen läßt. Es ist ersichtlich, daß die Prüfsubstanz eine stimulierende Wirkung auf die Makrophagenaktivität besitzt und zur Erhöhung der Enzymfreisetzung beiträgt.
as §4, §5, §6

[3] = tested on: zelluläre Immunantwort (DTH-Reaktion) gegen Schafserythrozyten; experiment: Delayed type hypersensitivity (DTH) reaction against sheep erythrocytes, foot swelling in mice; conditions: relative to maximal activation by compound of Beispiel 8 = 100 %, 1 x i.p. Tag 0

Row | SMILES | Makrophagenaktivität Chemolumineszenz [1] | Makrophagenaktivität Exozytose [2] | DTH-Reaktion (SRBC) ([3]; Dosis 20 mg/kg) | DTH-Reaktion (SRBC) ([3]; Dosis 200 mg/kg) | DTH-Reaktion (SRBC) ([3]; Dosis 100 mg/kg) | DTH-Reaktion (SRBC) ([3]; Dosis 10 mg/kg)
1 | Oc1nc(SSc2nc(O)nn2-c2ccccc2)n(-c2ccccc2)n1 [Beispiel 1, Bis-(3-Hydroxy-1-phenyl-1,2,4-triazol-5-yl)-disulfid] | 30% | 48% | – | – | – | –
2 | O=C(O)c1ccc2nc(SSc3nc4ccc(C(=O)O)cc4[nH]3)[nH]c2c1 [Beispiel 2, Bis-(5-Carboxy-benzimidazol-2-yl)-disulfid] | 72% | 53% | 88% | – | – | –
3 | C=C(Cl)Cn1c(SSc2nnc(O)c(=O)n2CC(=C)Cl)nnc(O)c1=O [Beispiel 5] | 37% | 45% | – | 61% | – | –
4 | Cn1nc(O)c(=O)nc1SSc1nc(=O)c(O)nn1C [Beispiel 6] | 26% | 33% | – | – | 100% | –
5 | O=C(O)Cc1csc(SSc2nc(CC(=O)O)cs2)n1 [Beispiel 10, Bis-(4-Carboxymethyl-1,3-thiazol-2-yl)-disulfid] | 66% | 21% | – | – | – | 112%
6 | O=C(O)c1cnc(SSc2ncc(C(=O)O)s2)s1 [Beispiel 12, Bis-(5-Carboxy-1,3-thiazol-2-yl)-disulfid] | 39% | 54% | – | – | 96% | –
7 | Cc1nc(SSc2nc(C)c(C(=O)O)s2)sc1C(=O)O [Beispiel 13] | 81% | 77% | – | 147% | – | –
8 | Cc1sc(SSc2nc(CC(=O)O)c(C)s2)nc1CC(=O)O [Beispiel 14, Bis-(4-Carboxymethyl-5-methyl-thiazol-2-yl)-disulfid] | 97% | 93% | – | – | 118% | –
